Test results reported in article PMC8230474, “Synthesis of Novel Acyl Derivatives of 3-(4,5,6,7-Tetrabromo-1H-benzimidazol-1-yl)propan-1-ols—Intracellular TBBi-Based CK2 Inhibitors with Proapoptotic Properties” (International Journal of Molecular Sciences, 2021).
Like-named read-outs stand apart in the source and are kept apart here.

Key:
[1] = molecular target: human CK2 catalytic subunit (CK2α) (Homo sapiens, UniProt P68400); experiment: Radiometric (P81 filter isotopic) kinase assay, CK2 catalytic subunit; assay type: biochemical; details: for remaining activity at 5 µM: 5 µM compound; for remaining activity at 5 µM / remaining activity at 10 µM: read-out: Residual Activity of the Enzyme CK2α; for remaining activity at 10 µM: 10 µM compound
Sequence of human CK2 catalytic subunit (CK2α) (P68400 whole entry): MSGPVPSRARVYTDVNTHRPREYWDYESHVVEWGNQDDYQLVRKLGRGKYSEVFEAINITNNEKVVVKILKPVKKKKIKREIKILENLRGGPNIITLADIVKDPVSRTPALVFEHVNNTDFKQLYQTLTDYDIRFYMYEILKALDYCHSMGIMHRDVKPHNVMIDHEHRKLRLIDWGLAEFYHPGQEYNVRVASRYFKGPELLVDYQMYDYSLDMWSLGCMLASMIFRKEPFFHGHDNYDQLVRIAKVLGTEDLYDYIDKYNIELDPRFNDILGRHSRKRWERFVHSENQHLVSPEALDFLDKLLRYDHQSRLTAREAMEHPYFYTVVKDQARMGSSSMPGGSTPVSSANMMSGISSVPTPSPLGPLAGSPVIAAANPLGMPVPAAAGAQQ

[2] = molecular target: CK2 holoenzyme (CK2 α2β2) (Homo sapiens, UniProt P68400); experiment: Radiometric (P81 filter isotopic) kinase assay, CK2 holoenzyme; assay type: biochemical; details: for remaining activity at 5 µM: 5 µM compound; for remaining activity at 5 µM / remaining activity at 10 µM: read-out: Residual Activity of the Enzyme CK2 α2β2; for remaining activity at 10 µM: 10 µM compound; for Ki: calculated from IC50 by Cheng and Prusoff equation
Sequence of CK2 holoenzyme (CK2 α2β2) (P68400 whole entry): as above
Sequence of CK2 holoenzyme (CK2 α2β2) (P67870 whole entry partner): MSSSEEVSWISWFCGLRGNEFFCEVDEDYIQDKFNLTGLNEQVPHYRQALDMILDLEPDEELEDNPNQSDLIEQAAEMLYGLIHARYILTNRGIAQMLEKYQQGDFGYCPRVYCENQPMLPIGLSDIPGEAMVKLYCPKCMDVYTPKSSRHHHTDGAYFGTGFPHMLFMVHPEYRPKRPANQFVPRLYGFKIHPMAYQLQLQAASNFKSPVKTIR

PIM1 = PIM1 (Homo sapiens, UniProt P11309); experiment: Radiometric (P81 filter isotopic) kinase assay, PIM1; assay type: biochemical; details: for remaining activity at 5 µM: 5 µM compound; for remaining activity at 5 µM / remaining activity at 10 µM: read-out: Residual Activity of the Enzyme PIM1; for remaining activity at 10 µM: 10 µM compound; for Ki: calculated from IC50 by Cheng and Prusoff equation
Sequence of PIM1 (P11309 whole entry, species assumed): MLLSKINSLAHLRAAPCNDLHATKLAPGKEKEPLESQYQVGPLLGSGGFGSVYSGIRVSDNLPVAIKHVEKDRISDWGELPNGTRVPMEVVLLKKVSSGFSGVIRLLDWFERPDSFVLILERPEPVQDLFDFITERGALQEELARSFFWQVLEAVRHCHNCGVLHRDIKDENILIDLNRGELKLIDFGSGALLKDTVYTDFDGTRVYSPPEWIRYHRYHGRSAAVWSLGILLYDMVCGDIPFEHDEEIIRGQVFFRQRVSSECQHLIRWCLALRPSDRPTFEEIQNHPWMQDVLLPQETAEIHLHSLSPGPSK

MCF-7 cells [3] = experiment: Cell cycle progression by flow cytometry, MCF-7; assay type: cell-based, human; details: MCF-7, 72 h, compound at its EC50
MCF-7 cells [4] = experiment: MTT viability assay, MCF-7; assay type: cell-based; details: Homo sapiens
Method: (§1) To test the anti-cancer effect of the TBBi derivatives, we treated the MCF-7 and MDA-MB-231 cells with the newly synthesized esters and previously reported compounds [34, 57] at the concentration range of 3.125 to 200 µM for 24 h, 48 h and 72 h. Additionally, the range of concentrations was extended by additional lower concentrations in MCF-7 for compound 4 with the minimum concentration of 0.195 µM. […] The EC50 values, describing the half maximal effective concentration of each tested compound, were calculated and are summarized in Table 2. […] We observed that the EC50 values increase in both cell lines with the elongation of fatty acids chain length in the tested compounds, thus strongly correlating with the decrease of their solubility in biological media as characterized by logS parameter (Table 2). The second reason for the decreased biological activity of the longer-chain aliphatic esters might be attributed to their greater resistance toward intracellular hydrolysis, which directly influences the slower release of the active form of the corresponding CK2 inhibitors. […] However, none of the tested compounds, except for compound 5, decreased the viability of both cell lines in a time-dependent manner (Figure 4).
(§2) MCF-7 and MDA-MB-231 were cultured in high-glucose Dulbecco’s modified Eagle medium (DMEM, Lonza, Basel, Switzerland) supplemented with 10% fetal bovine serum (FBS, EuroClone, Siziano, Italy)), 2 mM L-glutamine, and antibiotics (100 U/mL penicillin, 100 µg/mL streptomycin) (Sigma-Aldrich Chemical Company (St. Louis, MO, USA). Cells were grown in 75-cm^2 cell culture flasks (Sarstedt, Nümbrecht, Germany) in a humidified atmosphere of CO2/air (5%/95%) at 37 °C. All the experiments were performed in exponentially growing cultures. Stock solutions of the test compounds were prepared in DMSO and stored in −80 °C for a maximum of one month. For the cytotoxicity studies, stock solutions of the tested compounds were diluted 200-fold with the proper culture medium to obtain the final concentrations.
(§3) After incubation with the tested compounds, an MTT test was performed as described previously. Optical densities were measured at 570 nm using BioTek microplate reader (Winooski, VT, USA). All measurements were carried out in a minimum of three biological replicates.

MDA-MB-231 cells = experiment: MTT viability assay, MDA-MB-231; assay type: cell-based; details: Homo sapiens
Method: as §1, §2, §3

[5] = MCF7, 24 h, read-out: EC50 ± SD MCF-7
[6] = MCF7, 48 h, read-out: EC50 ± SD MCF-7
[7] = MCF7, 72 h, read-out: EC50 ± SD MCF-7
[8] = 24 h, read-out: EC50 ± SD MDA-MB-231
[9] = 48 h, read-out: EC50 ± SD MDA-MB-231
[10] = 72 h, read-out: EC50 ± SD MDA-MB-231
[11] = MCF7, 24 h, 48 h and 72 h, read-out: EC50 MCF-7
[12] = 24 h, 48 h and 72 h, read-out: EC50 MDA-MB-231

O=C(O)c1ccc2c(c1)nc(Nc1cccc(Cl)c1)c1ccncc12 [CX-4945, silmitasertib, reference compound]
remaining activity at 5 µM [1]: 0%
remaining activity at 10 µM [1]: 0%
remaining activity at 5 µM [2]: 0%
remaining activity at 10 µM [2]: 0%
remaining activity at 5 µM (PIM1): 2.3 ± 0.1%
cells in G1 (MCF-7 cells [3]): 33.6%
cells in G2M (MCF-7 cells [3]): 22.0%
cells in S (MCF-7 cells [3]): 44.4%

OCCCn1cnc2c(Br)c(Br)c(Br)c(Br)c21 [Compound 2]
remaining activity at 5 µM (PIM1): 17.2 ± 2.3%
remaining activity at 10 µM (PIM1): 10.1 ± 1%
Ki (PIM1): 0.42 ± 0.02 µM
EC50 (MCF-7 cells [4]; [5]): 24.1 ± 1.39 µM
EC50 (MCF-7 cells [4]; [6]): 20.1 ± 1.36 µM
EC50 (MCF-7 cells [4]; [7]): 19.6 ± 1.68 µM
EC50 (MDA-MB-231 cells; [8]): 54.6 ± 4.32 µM
EC50 (MDA-MB-231 cells; [9]): 27.2 ± 0.49 µM
EC50 (MDA-MB-231 cells; [10]): 20.6 ± 0.86 µM
cells in G1 (MCF-7 cells [3]): 51.0%
cells in G2M (MCF-7 cells [3]): 14.4%
cells in S (MCF-7 cells [3]): 34.6%

CCCC(=O)OCCCn1cnc2c(Br)c(Br)c(Br)c(Br)c21 [Compound 3a, (4,5,6,7-Tetrabromo-1H-benzimidazol-1-yl)propyl butanoate]
remaining activity at 5 µM [1]: 71 ± 9.5%
remaining activity at 10 µM [1]: 59.1 ± 3.7%
remaining activity at 5 µM [2]: 58 ± 4%
remaining activity at 10 µM [2]: 34.8 ± 3.4%
remaining activity at 5 µM (PIM1): 65 ± 2.8%
remaining activity at 10 µM (PIM1): 24.4 ± 0.9%
Ki (PIM1): 2.23 ± 0.07 µM
EC50 (MCF-7 cells [4]; [5]): 29.3 ± 1.24 µM
EC50 (MCF-7 cells [4]; [6]): 23.1 ± 0.77 µM
EC50 (MCF-7 cells [4]; [7]): 21.5 ± 1.86 µM
EC50 (MDA-MB-231 cells; [8]): 40.8 ± 1.58 µM
EC50 (MDA-MB-231 cells; [9]): 27.8 ± 1.31 µM
EC50 (MDA-MB-231 cells; [10]): 24.5 ± 0.48 µM
cells in G1 (MCF-7 cells [3]): 57.8%
cells in G2M (MCF-7 cells [3]): 13.8%
cells in S (MCF-7 cells [3]): 28.4%
melting point: 96 to 97 °C

CCCCCC(=O)OCCCn1cnc2c(Br)c(Br)c(Br)c(Br)c21 [Compound 3b, 3-(4,5,6,7-Tetrabromo-1H-benzimidazol-1-yl)propyl hexanoate]
remaining activity at 5 µM [1]: 89.3 ± 8%
remaining activity at 10 µM [1]: 83 ± 13%
remaining activity at 5 µM [2]: 85.5 ± 8.3%
remaining activity at 10 µM [2]: 83.1 ± 7.5%
remaining activity at 5 µM (PIM1): 85 ± 0.1%
remaining activity at 10 µM (PIM1): 74.2 ± 11.2%
EC50 (MCF-7 cells [4]; [5]): 39.6 ± 1.06 µM
EC50 (MCF-7 cells [4]; [6]): 28.4 ± 1.71 µM
EC50 (MCF-7 cells [4]; [7]): 24.8 ± 1.33 µM
EC50 (MDA-MB-231 cells; [8]): 95.6 ± 20.4 µM
EC50 (MDA-MB-231 cells; [9]): 32.2 ± 3.26 µM
EC50 (MDA-MB-231 cells; [10]): 27.3 ± 1.26 µM
cells in G1 (MCF-7 cells [3]): 60.5%
cells in G2M (MCF-7 cells [3]): 12.2%
cells in S (MCF-7 cells [3]): 27.3%
melting point: 65 to 67 °C

CCCCCCCCCCCC(=O)OCCCn1cnc2c(Br)c(Br)c(Br)c(Br)c21 [Compound 3d, 3-(4,5,6,7-Tetrabromo-1H-benzimidazol-1-yl)propyl dodecanoate]
EC50 (MCF-7 cells [4]; [11]): > 100 µM
EC50 (MCF-7 cells [4]; [5]): > 100 µM
EC50 (MCF-7 cells [4]; [6]): > 100 µM
EC50 (MCF-7 cells [4]; [7]): > 100 µM
EC50 (MDA-MB-231 cells; [12]): > 100 µM
EC50 (MDA-MB-231 cells; [8]): > 100 µM
EC50 (MDA-MB-231 cells; [9]): > 100 µM
EC50 (MDA-MB-231 cells; [10]): > 100 µM
melting point: 59 to 60 °C

Cc1nc2c(Br)c(Br)c(Br)c(Br)c2[nH]1 [Compound 4, 4,5,6,7-tetrabromo-2-methyl-1H-benzimidazole, reference compound]
remaining activity at 5 µM [1]: 18.8 ± 1.1%
remaining activity at 10 µM [1]: 7.7 ± 3.3%
remaining activity at 5 µM [2]: 6 ± 0.9%
remaining activity at 10 µM [2]: 2.9 ± 0.2%
Ki [2]: 0.11 ± 0.04 µM
remaining activity at 5 µM (PIM1): 8 ± 0.9%
remaining activity at 10 µM (PIM1): 4.5 ± 0.2%
Ki (PIM1): 0.21 ± 0.02 µM
EC50 (MCF-7 cells [4]; [5]): 4.12 ± 0.03 µM
EC50 (MCF-7 cells [4]; [6]): 4.2 ± 0.29 µM
EC50 (MCF-7 cells [4]; [7]): 2.66 ± 0.19 µM
EC50 (MDA-MB-231 cells; [8]): 12.8 ± 6.6 µM
EC50 (MDA-MB-231 cells; [9]): 5.35 ± 0.82 µM
EC50 (MDA-MB-231 cells; [10]): 4.73 ± 0.48 µM
cells in G1 (MCF-7 cells [3]): 53.6%
cells in G2M (MCF-7 cells [3]): 16.7%
cells in S (MCF-7 cells [3]): 29.7%

Cc1nc2c(Br)c(Br)c(Br)c(Br)c2n1CCCO [Compound 5]
remaining activity at 5 µM [1]: 26.1 ± 3.5%
remaining activity at 10 µM [1]: 16.3 ± 1%
Ki ([1]; calculated from IC50 by Cheng and Prusoff equation): 0.2 ± 0.08 µM
remaining activity at 5 µM [2]: 14.2 ± 2%
remaining activity at 10 µM [2]: 9.1 ± 0.6%
Ki [2]: 0.05 ± 0.01 µM
remaining activity at 5 µM (PIM1): 9.3 ± 2.6%
remaining activity at 10 µM (PIM1): 3.4 ± 0.3%
Ki (PIM1): 0.15 ± 0.08 µM
EC50 (MCF-7 cells [4]; [5]): 17.6 ± 6.35 µM
EC50 (MCF-7 cells [4]; [6]): 16 ± 5.31 µM
EC50 (MCF-7 cells [4]; [7]): 4.9 ± 2.71 µM
EC50 (MDA-MB-231 cells; [8]): 57.8 ± 20.8 µM
EC50 (MDA-MB-231 cells; [9]): 21 ± 9.85 µM
EC50 (MDA-MB-231 cells; [10]): 9.99 ± 0.44 µM
cells in G1 (MCF-7 cells [3]): 60.2%
cells in G2M (MCF-7 cells [3]): 13.5%
cells in S (MCF-7 cells [3]): 26.3%
melting point: 227 to 230 °C

CCCCCCCCCCCC(=O)OCCCn1c(C)nc2c(Br)c(Br)c(Br)c(Br)c21 [Compound 6d, (4,5,6,7-Tetrabromo-2-methyl-1H-benzimidazol-1-yl)propyl dodecanoate]
EC50 (MCF-7 cells [4]; [11]): > 100 µM
EC50 (MCF-7 cells [4]; [5]): > 100 µM
EC50 (MCF-7 cells [4]; [6]): > 100 µM
EC50 (MCF-7 cells [4]; [7]): > 100 µM
EC50 (MDA-MB-231 cells; [12]): > 100 µM
EC50 (MDA-MB-231 cells; [8]): > 100 µM
EC50 (MDA-MB-231 cells; [9]): > 100 µM
EC50 (MDA-MB-231 cells; [10]): > 100 µM
melting point: 69 to 70 °C
